Seven compounds from paper PMC11678766, “Identification of Novel Inhibitors of Starch Excess 4 (SEX4)” (Life, 2024) can be followed below.

Common to all, as to format: biochemical
In assay [1] the target is T1, LSF2 (Arabidopsis thaliana, UniProt Q9SRK5).
T1 construct: gift from Dr. Gentry's group, University of Kentucky College of Medicine
Put plainly: Phosphatase assay against pNPP, LSF2. The procedure: (§1) The Arabidopsis thaliana SEX4 lacking the first 89 amino acids (Δ89-SEX4) and LSF2 proteins were kindly provided by Dr. Gentry’s group at the University of Kentucky College of Medicine (Lexington, KY, USA). para-nitrophenyl phosphate disodium salt hexahydrate (pNPP), Malachite green oxalate salt, ammonium molybdate tetrahydrate, and amylopectin from potato starch were purchased from Sigma-Aldrich. Absorbance was measured on a Beckman Coulter (Brea, CA, USA) DU 700 Series UV/Vis Spectrophotometer.
(§2) The phosphatase activity of SEX4 or LSF2 against pNPP in the presence or absence of an inhibitor was measured in this assay. The reaction (20 μL of total volume) of A. thaliana SEX4 or LSF2 was performed in the reaction mixture containing 1~2 μg SEX4 or LSF2, 1X assay buffer pH 5.5 (20 mM sodium acetate, 10 mM bis-Tris, 10 mM Tris, pH with HCl), 5 mM Dithiothreitol (DTT), and 50 mM pNPP (Sigma-Aldrich, Wien, Austria). It was incubated at 37 °C for 10 min with or without an inhibitor. The reaction was terminated by adding 80 μL of 0.25 N NaOH, and absorbance was measured at 410 nm.
(§3) The steady-state kinetic parameters were determined by varying substrate concentrations (pNPP 0.5–50 mM; amylopectin 5–45 μg) with or without an inhibitor. The data were fitted by nonlinear regression to the Michaelis–Menten equation using GraphPad PRISM 9.0 software to derive KM and kcat values. […] Inhibition constants (Ki) and inhibition types were determined by varying substrate concentrations in the absence of an inhibitor and in the presence of an inhibitor at the IC50 concentration.
(§4) The process of finding an inhibitor proceeded as follows (Figure 1). […] Then, reproduction experiments were performed with these compounds to select candidate substances. […] In order to assess any difference in selectivity between SEX4 and LSF2 for the selected candidates, the IC50 values of LSF2 were obtained through the pNPP and amylopectin assays and compared with those of SEX4.

Assay [2] concerns the target T2, SEX4 (Arabidopsis thaliana, UniProt Q9FEB5).
T2 construct: gift from Dr. Gentry's group, University of Kentucky College of Medicine
T2 sequence (Q9FEB5 90-379 limits assumed): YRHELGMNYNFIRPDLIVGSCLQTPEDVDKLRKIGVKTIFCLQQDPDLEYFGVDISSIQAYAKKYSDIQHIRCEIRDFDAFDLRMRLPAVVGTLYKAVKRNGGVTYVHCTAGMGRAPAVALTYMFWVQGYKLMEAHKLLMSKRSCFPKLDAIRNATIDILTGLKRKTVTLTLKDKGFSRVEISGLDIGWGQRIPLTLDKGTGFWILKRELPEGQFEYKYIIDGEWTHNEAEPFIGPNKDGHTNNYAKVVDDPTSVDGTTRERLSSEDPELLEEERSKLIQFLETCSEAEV
Put plainly: Phosphatase assay against amylopectin, SEX4. Particulars: for Inhibition model, amylopectin assay, SEX4: determined by steady-state kinetic measurements; for Selectivity between SEX4 and LSF2: comparison of IC50 values for SEX4 and LSF2. The procedure: as §1
(§5) The phosphatase activity of SEX4 or LSF2 toward amylopectin in the absence or presence of an inhibitor was measured in a reaction mixture with 2 μg SEX4 or LSF2 at 37 °C in 20 μL volume. The reaction mixture contained 100 mM sodium acetate, 50 mM bis-Tris, 50 mM Tris (pH 6.5), 10 mM DTT, and 45 μg amylopectin with or without an inhibitor. […] The release of free inorganic phosphate was determined by measuring the absorbance at 620 nm and the K2HPO4 standard curve.
as §3, §4
(§6) The IC50 values were calculated directly from regression curves using GraphPad PRISM software. The IC50 graph was fitted to the Logistic Equation.

In assay [3] the target is T2, SEX4. Put plainly: Phosphatase assay against pNPP, SEX4. Particulars: for Inhibition model, pNPP assay, SEX4: determined by steady-state kinetic measurements. The procedure: as §1, §2, §3, §4, §6
In assay [4] the target is T1, LSF2. Put plainly: Phosphatase assay against amylopectin, LSF2. The procedure:
as §1, §5, §3, §4

[5] abbreviates: average ± standard error of three measurements, read-out: IC50, pNPP assay, LSF2.
[6] abbreviates: 45 μg amylopectin, inhibitor 0–0.2 mM, average ± standard error of three measurements, read-out: IC50, amylopectin assay, SEX4.
The mark [7] stands for this setting: amylopectin 5–45 μg, inhibitor at IC50 concentration, average ± standard error of three measurements, read-out: Ki, amylopectin assay, SEX4.
The mark [8] stands for this setting: 50 mM pNPP, inhibitor 0–0.2 mM, average ± standard error of three measurements, read-out: IC50, pNPP assay, SEX4.
The mark [9] stands for this setting: pNPP 0.5–50 mM, inhibitor at IC50 concentration, average ± standard error of three measurements, read-out: Ki, pNPP assay, SEX4.
[10] abbreviates: not determined with the maximum concentration of candidate compounds, read-out: IC50, amylopectin assay, LSF2.

Molecules are shown by their SMILES.

T1 sequence (Q9SRK5 62-282): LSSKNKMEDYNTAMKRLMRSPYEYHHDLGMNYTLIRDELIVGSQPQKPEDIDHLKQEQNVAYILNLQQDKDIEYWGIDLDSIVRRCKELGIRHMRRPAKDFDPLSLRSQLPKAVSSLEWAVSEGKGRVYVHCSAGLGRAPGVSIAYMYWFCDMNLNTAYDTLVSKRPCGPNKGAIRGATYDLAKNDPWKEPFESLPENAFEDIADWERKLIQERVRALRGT

For `CCCc1c(O)nc2[nH]c(=O)sc2c1C` [Compound D04, Thiazolo[4,5-b]pyridin-2(3H)-one, 5-hydroxy-7-methyl-6-propyl], the IC50 (usually the midpoint of a concentration-inhibition curve) on LSF2 [1] (setting [5]) stood at 44.82 ± 0.022 µM; at SEX4 [2] (setting [6]) it was 57.33 ± 0.34 µM; at SEX4 [3] (setting [8]), 21.6 ± 0.008 µM. Moreover, the Ki (as a rule, a measure of affinity in units of concentration, obtained from inhibition or displacement) was found to be 28.31 ± 0.014 µM on SEX4 [2] (setting [7]) and 25.41 ± 0.012 µM on SEX4 [3] (setting [9]). Besides, the “Inhibition model, amylopectin assay, SEX4” value on SEX4 [2] was “Competitive”. Also, at SEX4 [3], the “Inhibition model, pNPP assay, SEX4” value was “Uncompetitive”.
Regarding `CCCCCC/C=C\CCCCCCCc1cccc(O)c1C(=O)O` [Compound F05, Ginkgolic acid], the IC50 was over 50 µM at LSF2 [4] (setting [10]), 21.26 ± 0.008 µM on LSF2 [1] (setting [5]), 21.1 ± 0.021 µM at SEX4 [2] (setting [6]) and 5.18 ± 0.014 µM against SEX4 [3]. The Ki at SEX4 [2] (setting [7]) was 20.81 ± 0.021 µM; at SEX4 [3] (setting [9]) it was 6.87 ± 0.007 µM. At SEX4 [2], the “Inhibition model, amylopectin assay, SEX4” value is “Uncompetitive”. At SEX4 [3] (SEX4 vs LSF2), the “IC50 for SEX4 compared with that of LSF2, pNPP assay” value is reported as “approximately four times lower”. For the same compound, the “Inhibition model, pNPP assay, SEX4” value at SEX4 [3] was “Uncompetitive”.
The compound `O=C1C=CC(=O)c2c(O)ccc(O)c21` [Compound F09, Naphthazarin] gave an IC50 on LSF2 [4] of over 50 µM. Further, at LSF2 [1], it took 23.97 ± 0.028 µM to reach half-maximal inhibition (IC50). Also, on SEX4 [2], the IC50 is 7.49 ± 0.016 µM; the Ki stood at 16.42 ± 0.012 µM; the “Selectivity between SEX4 and LSF2” value was “selective for SEX4”; the “Inhibition model, amylopectin assay, SEX4” value is given as “Uncompetitive”. Further, on SEX4 [3], the IC50 was 15.83 ± 0.018 µM; the Ki is 39.81 ± 0.026 µM; the “Inhibition model, pNPP assay, SEX4” value is “Mixed-model”.
Regarding `O=C(OCC1OC(OC(=O)c2cc(O)c(O)c(O)c2)C(OC(=O)c2cc(O)c(O)c(O)c2)C(OC(=O)c2cc(O)c(O)c(O)c2)C1OC(=O)c1cc(O)c(O)c(O)c1)c1cc(O)c(O)c(O)c1` [Compound G07, Penta-O-gallolyl-β-D-glucose], the IC50 was over 50 µM on LSF2 [4] (setting [10]); 13.39 ± 0.036 µM at LSF2 [1] (setting [5]); 38.61 ± 0.022 µM on SEX4 [2] (read-out: IC50, amylopectin assay, SEX4); 30.91 ± 0.021 µM at SEX4 [3] (read-out: IC50, pNPP assay, SEX4). The Ki on SEX4 [2] (read-out: Ki, amylopectin assay, SEX4) turned out to be 46.4 ± 0.032 µM; at SEX4 [3] (read-out: Ki, pNPP assay, SEX4), 37.31 ± 0.026 µM.
In the case of `O=C(O)c1cc(O)c2c(c1)[C@@H]([C@@H]1c3cc(C(=O)O)cc(O)c3C(=O)c3c(OC4OC(CO)C(O)C(O)C4O)cccc31)c1cccc(OC3OC(CO)C(O)C(O)C3O)c1C2=O` (stereo partly shown) [Compound G11, Sennoside], the IC50 at LSF2 [4] (setting [10]) was over 50 µM; on LSF2 [1] (setting [5]), 23.03 ± 0.029 µM; at SEX4 [2] (setting [6]) it was 9.72 ± 0.008 µM; at SEX4 [3] (setting [8]), 25.75 ± 0.017 µM. In addition, the Ki at SEX4 [2] (setting [7]) stood at 7.81 ± 0.005 µM; on SEX4 [3] (setting [9]), 33.87 ± 0.019 µM. Further, the “Selectivity between SEX4 and LSF2” value on SEX4 [2] is recorded as “selective for SEX4”. Also, at SEX4 [2], the “Inhibition model, amylopectin assay, SEX4” value is “Competitive”. Also, the “Inhibition model, pNPP assay, SEX4” value on SEX4 [3] is recorded as “Uncompetitive”.
Take `Cc1c(O)nc2[nH]c(=O)sc2c1C` [Compound H03, Thiazolo[4,5-b]pyridin-2(3H)-one, 5-hydroxy-6,7-dimethyl]: the IC50 at LSF2 [1] (setting [5]) came out at 49.58 ± 0.047 µM; at SEX4 [2] (setting [6]), 13.05 ± 0.024 µM; on SEX4 [3] (setting [8]), 39.58 ± 0.016 µM. Also, the Ki at SEX4 [2] (setting [7]) turned out to be 29.84 ± 0.025 µM; on SEX4 [3] (setting [9]), 42.34 ± 0.037 µM. Besides, the “Inhibition model, amylopectin assay, SEX4” value on SEX4 [2] was “Competitive”. Besides, at SEX4 [3], the “Inhibition model, pNPP assay, SEX4” value is reported as “Uncompetitive”.
For `CC(C)=CCc1c(-c2ccc(O)cc2O)oc2c(C3C=C(C)CC(C(=O)c4ccc(O)cc4O)C3c3ccc(O)cc3O)c(O)cc(O)c2c1=O` (stereo not shown) [Compound H08, Moracenin B], the IC50 is over 50 µM at LSF2 [4] (setting [10]), 22.92 ± 0.025 µM on LSF2 [1] (setting [5]), 16.49 ± 0.051 µM at SEX4 [2] (setting [6]) and 18.69 ± 0.026 µM on SEX4 [3] (setting [8]). The Ki on SEX4 [2] (setting [7]) is 31.12 ± 0.027 µM; at SEX4 [3] (setting [9]), 20.84 ± 0.023 µM. Further, the “Inhibition model, amylopectin assay, SEX4” value at SEX4 [2] is “Uncompetitive”. Further, the “Inhibition model, pNPP assay, SEX4” value on SEX4 [3] is given as “Uncompetitive”.
